Assay results as given in patent publication US20100029643A1 (ASTRAZENECA AB, priority 2006, published 2010).

biological target: T1, Edg-1/S1P1 receptor (Homo sapiens, UniProt P21453); assay: In vitro cell based receptor activation assay - Transfluor assay (assay I or II; beta-arrestin GFP relocalization after S1P stimulation); settings: at 3.50 μM (titrated from top concentration 10 μM)
T1 construct: expressed in transfected cells; host or cells: human osteogenic sarcoma U2OS cells: Edg-1 Transfluor U2OS WT Clone #37 (assay I), Edg-1 Transfluor U2OS Clone #3 (assay II)
T1 sequence (P21453 whole entry): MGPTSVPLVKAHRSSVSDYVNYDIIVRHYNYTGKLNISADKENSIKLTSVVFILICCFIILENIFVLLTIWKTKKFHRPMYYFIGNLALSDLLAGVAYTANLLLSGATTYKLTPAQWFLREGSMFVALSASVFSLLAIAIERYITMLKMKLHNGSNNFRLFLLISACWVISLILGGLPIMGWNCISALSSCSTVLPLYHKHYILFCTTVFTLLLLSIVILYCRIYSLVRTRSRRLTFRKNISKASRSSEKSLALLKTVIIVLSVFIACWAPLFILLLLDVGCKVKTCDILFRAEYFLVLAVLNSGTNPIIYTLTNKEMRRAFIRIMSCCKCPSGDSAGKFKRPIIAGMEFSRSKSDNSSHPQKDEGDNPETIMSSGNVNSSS
Method in brief: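 U2OS cells overexpressing S1P1 with a beta-arrestin-GFP construct were pre-incubated with compound for 15 min at room temperature, then stimulated with S1P for 45 min at 37 °C. In assay I, final S1P was 375 nM or 750 nM and compound was a 9-point 3-fold series from 100 μM, in 1% DMSO. Cells were fixed and Hoechst-stained, GFP relocalization was imaged, and EC50 values were fitted.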

Row | inhibition at 3.5 µM | Compound
1 | 81.9% | CCn1c([C@@H](C)NS(=O)(=O)c2ccc(C#N)nc2)nc2cnc(C3CC3)cc21 [Example 173, 6-Cyano-pyridine-3-sulfonic acid [1-(6-cyclopropyl-1-ethyl-1H-imidazo[4,5-c]pyridin-2-yl)-ethyl]-amide]
2 | 77.1% | CCn1c([C@@H](C)NS(=O)(=O)c2ccc(NN)nc2)nc2ccc(C(F)(F)F)cc21 [Example 168, (R)—N-(1-(1-ethyl-6-(trifluoromethyl)-1H-benzo[d]imidazol-2-yl)ethyl)-6-hydrazinylpyridine-3-sulfonamide]
3 | 86% | CCn1c([C@@H](C)NS(=O)(=O)c2ccc(CCl)cc2)nc2ccc(C(F)(F)F)cc21 [Example 166, (R)-4-(Chloromethyl)-N-(1-(1-ethyl-6-(trifluoromethyl)-1H-benzo[d]imidazol-2-yl)ethyl)benzenesulfonamide]
4 | 73% | CCn1c([C@@H](C)NS(=O)(=O)c2ccc(Cl)cc2)nc2cc(C)c(C)cc21 [Example 24, 4-Chloro-N-[(1R)-1-(1-ethyl-5,6-dimethyl-1H-benzimidazol-2-yl)ethyl]benzenesulfonamide]
5 | 82% | CCn1c(C(C)(C)NS(=O)(=O)c2ccc(F)cc2)nc2cnc(C(F)(F)F)cc21 [Example 153, N-(2-(1-Ethyl-6-(trifluoromethyl)-1H-imidazo[4,5-c]pyridin-2-yl)propan-2-yl)-4-fluorobenzenesulfonamide]
6 | 94.4% | CCn1c([C@@H](C)NS(=O)(=O)c2ccc(Cl)cc2)nc2ccc(CO)cc21 (stereo in doubt) [Example 68, 4-Chloro-N-{1-[1-ethyl-6-(hydroxymethyl)-1H-benzimidazol-2-yl]ethyl}benzenesulfonamide]
7 | 95% | CCn1c([C@@H](C)NS(=O)(=O)c2ccc(S(C)(=O)=O)cc2)nc2ccc(C(F)(F)F)cc21 [Example 131, (R)-N-(1-(1-Ethyl-6-(trifluoromethyl)-1H-benzo[d]imidazol-2-yl)ethyl)-4-(methylsulfonyl)-benzenesulfonamide]

The remaining lines, values behind:

Row | Compound | inhibition at 3.5 µM
8 | CCn1c([C@@H](C)NS(=O)(=O)c2ccccn2)nc2ccc(C(F)(F)F)cc21 [Example 125, N-{(1R)-1-[1-Ethyl-6-(trifluoromethyl)-1H-benzimidazol-2-yl]ethyl}pyridine-2-sulfonamide] | 14.9%
9 | CCn1c([C@@H](C)NS(=O)(=O)c2ccc(F)c(C#N)c2)nc2ccc(C(F)(F)F)cc21 [Example 27, 3-Cyano-N-{(1R)-1-[1-ethyl-6-(trifluoromethyl)-1H-benzimidazol-2-yl]ethyl}-4-fluorobenzenesulfonamide] | 85.7%
10 | CCn1c([C@@H](C)NS(=O)(=O)c2ccc(C)cc2)nc2ccc(C(F)(F)F)cc21 [Example 115, (R)-N-(1-(1-Ethyl-6-(trifluoromethyl)-1H-benzo[d]imidazol-2-yl)ethyl)-4-methylbenzenesulfonamide] | 85.3%
11 | CCn1c([C@@H](C)NS(=O)(=O)c2ccc(F)cc2)nc2ncc(C(F)(F)F)cc21 [Example 179, N-{(1R)-1-[1-Ethyl-6-(trifluoromethyl)-1H-imidazo[4,5-b]pyridin-2-yl]ethyl}-4-fluorobenzene sulfonamide] | 90.5%
12 | CCn1c([C@@H](C)NS(=O)(=O)c2ccc(F)c(F)c2F)nc2ccc(C(F)(F)F)cc21 [Example 34] | 95.3%
13 | CCOc1ccc(S(=O)(=O)N[C@H](C)c2nc3ccc(C(F)(F)F)cc3n2CC)cc1 [Example 157, (R)-4-Ethoxy-N-(1-(1-ethyl-6-(trifluoromethyl)-1H-benzo[d]imidazol-2-yl)ethyl)benzenesulfonamide] | 88.4%
14 | CCn1c([C@@H](C)NS(=O)(=O)c2ccc(OC)c(OC)c2)nc2ccc(C(F)(F)F)cc21 [Example 124, N-{(1R)-1-[1-Ethyl-6-(trifluoromethyl)-1H-benz-imidazol-2-yl]ethyl}-3,4-di-methoxybenzenesulfonamide] | 79.4%
15 | CCn1c([C@@H](C)NS(=O)(=O)c2ccc(C#N)cc2)nc2cnc(C(F)(F)F)cc21 [Example 146, (R)-4-Cyano-N-(1-(1-ethyl-6-(trifluoromethyl)-1H-imidazo[4,5-c]pyridin-2-yl)ethyl)benzenesulfonamide] | 91.8%
16 | CCn1c([C@@H](C)NS(=O)(=O)c2ccc3c(c2)OCCO3)nc2ccc(C(F)(F)F)cc21 [Example 44, N-{(1R)-1-[1-Ethyl-6-(trifluoromethyl)-1H-benzimidazol-2-yl]ethyl}-2,3-dihydro-1,4-benzodioxine-6-sulfonamide] | 93.9%

same assay, conditions: at 3.70 μM (titrated from top concentration 100 μM)

Row | inhibition at 3.7 µM | Compound
17 | 89% | CCn1c([C@@H](C)NS(=O)(=O)c2ccc(Cl)c3cccnc23)nc2ccc(C(F)(F)F)cc21 [Example 52, 5-Chloro-N-{(1R)-1-[1-ethyl-6-(trifluoromethyl)-1H-benzimidazol-2-yl]ethyl}-quinoline-8-sulfonamide]
18 | 51.7% | CCn1c([C@@H](C)NS(=O)(=O)c2ccc(Cl)cc2)nc2cccc(Cl)c21 [Example 86, (R)-4-Chloro-N-[1-(7-chloro-1-ethyl-1H-benzoimidazol-2-yl)ethyl]-benzenesulfonamide]
19 | 92.1% | CCn1c([C@@H](C)NS(=O)(=O)c2cnc(Cl)c(Br)c2)nc2ccc(C(F)(F)F)cc21 [Example 49, 5-Bromo-6-chloro-N-{(1R)-1-[1-ethyl-6-(trifluoromethyl)-1H-benzimidazol-2-yl]ethyl}pyridine-3-sulfonamide]
20 | 94.6% | CCn1c([C@@H](C)NS(=O)(=O)c2ccc(Cl)cc2)nc2cccc(C)c21 [Example 66, 4-Chloro-N-[(1R)-1-(1-ethyl-7-methyl-1H-benzimidazol-2-yl)ethyl]benzenesulfonamide]
21 | 61% | CCn1c([C@@H](C)NS(=O)(=O)c2cn(C)nc2C)nc2ccc(C(F)(F)F)cc21 [Example 41, N-{(1R)-1-[1-Ethyl-6-(trifluoromethyl)-1H-benzimidazol-2-yl]ethyl}-1,3-dimethyl-1H-pyrazole-4-sulfonamide]
22 | 49% | CCn1c([C@@H](C)NS(=O)(=O)c2cnc(NC(C)=O)s2)nc2ccc(C(F)(F)F)cc21 [Example 36, N-{5-[({(1R)-1-[1-Ethyl-6-(trifluoromethyl)-1H-benzimidazol-2-yl]ethyl}amino)sulfonyl]-1,3-thiazol-2-yl}acetamide]

The next lines start with the compound.

Row | Compound | inhibition at 3.7 µM
23 | CCn1c(C(C)NS(=O)(=O)c2ccc(Cl)cc2)nc2cnccc21 (centres unmarked) [Example 13, 4-Chloro-N-[1-(1-ethyl-1H-imidazo[4,5-c]pyridin-2-yl)ethyl]benzene sulfonamide] | 72.8%
24 | CCn1c([C@@H](C)NS(=O)(=O)c2cnc(C)n2C)nc2ccc(C(F)(F)F)cc21 [Example 32, N-{(1R)-1-[1-Ethyl-6-(trifluoromethyl)-1H-benzimidazol-2-yl]ethyl}-1,2-dimethyl-1H-imidazole-5-sulfonamide] | 66.5%
25 | CCn1c([C@@H](C)NS(=O)(=O)c2ccc(Cl)cc2)nc2ccc(C(=O)N3CCOCC3)cc21 (stereo in doubt) [Example 73, 4-Chloro-N-{1-[1-ethyl-6-(morpholin-4-ylcarbonyl)-1H-benzimidazol-2-yl]ethyl}benzenesulfonamide] | 8.88%

same assay, conditions: one or the other of the two Transfluor assays; Edg-1 Transfluor U2OS cells, S1P ligand

Row | Compound | EC50
26 | CCn1c([C@H](C)NS(=O)(=O)c2ccc(Cl)cc2)nc2cnccc21 [4-chloro-N-[(1S)-1-(1-ethyl-1H-imidazo[4,5-c]pyridin-2-yl)ethyl]benzenesulfonamide] | > 33 µM
